The assay deals with T1, mouse TRPM3α2 (mTRPM3) ion channel (Mus musculus, UniProt J9SQF3).
T1 construct: expressed in transfected cells; host or cells: flip-in HEK293
The assay can be described thus: TRPM3 ion channel driven Ca2+ uptake, Fluo-4 AM assay, PS-stimulated (mTRPM3). Format: cell-based. To be noted: TRPM3 overexpressing flip-in HEK293 cells stimulated with Pregnenolone sulfate (PS) 50 μM, activity ranges A, B, C. In short, it runs like this: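 Flp-In HEK293 cells overexpressing mTRPM3α2 were added, in Ca²⁺-free Krebs, to wells already holding compound and 50 μM pregnenolone sulfate in Ca²⁺-containing Krebs. Fluo-4 AM fluorescence (ex 485/em 535 nm) was read immediately. Percent inhibition was computed from RFU relative to PS/vehicle wells and a positive-control inhibitor.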

T1 sequence (J9SQF3 1-1709 isoform J9SQF3-12): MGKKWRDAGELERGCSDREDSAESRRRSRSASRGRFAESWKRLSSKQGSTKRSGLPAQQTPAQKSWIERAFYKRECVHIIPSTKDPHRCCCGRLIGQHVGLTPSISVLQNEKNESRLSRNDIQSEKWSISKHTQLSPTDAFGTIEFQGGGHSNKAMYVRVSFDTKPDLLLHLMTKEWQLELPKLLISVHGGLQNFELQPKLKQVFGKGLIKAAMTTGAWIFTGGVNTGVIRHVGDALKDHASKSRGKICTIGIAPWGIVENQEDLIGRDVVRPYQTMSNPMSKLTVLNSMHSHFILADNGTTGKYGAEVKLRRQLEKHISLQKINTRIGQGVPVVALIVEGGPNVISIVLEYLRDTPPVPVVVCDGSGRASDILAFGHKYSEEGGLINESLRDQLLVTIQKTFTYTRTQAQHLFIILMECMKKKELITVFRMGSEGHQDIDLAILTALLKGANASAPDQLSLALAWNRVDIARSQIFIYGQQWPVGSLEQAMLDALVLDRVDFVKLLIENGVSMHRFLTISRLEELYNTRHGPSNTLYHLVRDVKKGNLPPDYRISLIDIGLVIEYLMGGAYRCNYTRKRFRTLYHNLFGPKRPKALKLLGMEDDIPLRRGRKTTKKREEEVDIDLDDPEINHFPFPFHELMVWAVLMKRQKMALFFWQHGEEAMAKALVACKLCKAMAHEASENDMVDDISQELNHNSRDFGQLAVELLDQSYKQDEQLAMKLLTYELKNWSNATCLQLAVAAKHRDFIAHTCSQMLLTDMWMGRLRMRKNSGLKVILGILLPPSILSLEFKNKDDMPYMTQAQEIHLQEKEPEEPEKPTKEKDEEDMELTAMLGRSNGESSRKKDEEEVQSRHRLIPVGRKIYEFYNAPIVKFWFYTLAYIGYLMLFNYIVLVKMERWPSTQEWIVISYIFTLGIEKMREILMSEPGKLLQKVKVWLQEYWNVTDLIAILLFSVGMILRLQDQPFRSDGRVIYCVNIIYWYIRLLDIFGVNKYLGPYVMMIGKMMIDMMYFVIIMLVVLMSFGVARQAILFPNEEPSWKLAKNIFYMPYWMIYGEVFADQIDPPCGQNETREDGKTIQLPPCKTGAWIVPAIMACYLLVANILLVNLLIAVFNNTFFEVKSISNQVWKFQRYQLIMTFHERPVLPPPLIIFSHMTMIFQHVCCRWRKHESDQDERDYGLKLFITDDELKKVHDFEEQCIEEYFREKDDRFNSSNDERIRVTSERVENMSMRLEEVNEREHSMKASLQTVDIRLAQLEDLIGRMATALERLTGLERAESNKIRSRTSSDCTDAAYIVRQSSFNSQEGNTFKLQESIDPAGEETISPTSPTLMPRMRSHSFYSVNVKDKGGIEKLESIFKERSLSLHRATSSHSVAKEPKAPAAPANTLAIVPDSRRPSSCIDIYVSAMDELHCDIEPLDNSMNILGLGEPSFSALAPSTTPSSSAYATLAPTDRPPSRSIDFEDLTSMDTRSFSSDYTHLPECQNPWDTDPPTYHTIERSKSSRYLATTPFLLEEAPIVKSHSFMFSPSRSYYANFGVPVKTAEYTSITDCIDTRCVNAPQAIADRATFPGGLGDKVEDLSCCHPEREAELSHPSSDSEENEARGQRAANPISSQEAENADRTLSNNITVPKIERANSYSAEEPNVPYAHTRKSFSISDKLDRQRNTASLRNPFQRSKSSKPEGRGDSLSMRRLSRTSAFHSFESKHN

In the case of `Cc1oc2ccc(OCc3ccccc3)cc2c1C(=O)N[C@H]1CCN(C)C1` [Cpd 079, (S)-5-(benzyloxy)-2-methyl-N-(1-methylpyrrolidin-3-yl)benzofuran-3-carboxamide], the IC50 (usually the concentration that inhibits the measured activity by half) is less than 1 µM.

`Cc1oc2ccc(OCc3ccccc3)c(F)c2c1C(=O)NC1CNCC1(F)F` (single isomer, unassigned) [Cpd 298-En 2, 5-(benzyloxy)-N-(4,4-difluoropyrrolidin-3-yl)-4-fluoro-2-methylbenzofuran-3-carboxamide]: the IC50 was in the range of 1 to 20 µM.

Consider `CN1CCC(NC(=O)c2coc3ccc(OCc4ccccc4)cc23)CC1` [Cpd 081, 5-(benzyloxy)-N-(1-methylpiperidin-4-yl)benzofuran-3-carboxamide], for which the half-inhibitory concentration (IC50) was in the range of 1 to 20 µM.

In turn, `Cc1oc2ccc(OCc3cccc(F)c3)cc2c1C(N)=O` [Cpd 037, 5-((3-fluorobenzyl)oxy)-2-methylbenzofuran-3-carboxamide] yielded an IC50 of more than 20 µM.

Compound `Cc1oc2ccc(OC(CO)c3ccccc3F)cc2c1C(=O)NC1(C(N)=O)CCC1` (single isomer, unassigned) [Cpd 345-En 2, N-(1-carbamoylcyclobutyl)-5-(1-(2-fluorophenyl)-2-hydroxyethoxy)-2-methylbenzofuran-3-carboxamide] returned a half-maximal inhibitory concentration (IC50) of less than 1 µM.

Regarding `Cc1oc2ccc(COc3ccccc3F)cc2c1C(=O)NC(CO)C(N)=O` (single isomer, unassigned) [Cpd 321-En 2, N-(1-amino-3-hydroxy-1-oxopropan-2-yl)-5-((2-fluorophenoxy)methyl)-2-methylbenzofuran-3-carboxamide], the half-maximal inhibitory concentration (IC50) is less than 1 µM.

Compound `COc1ccccc1COc1ccc2oc(C)c(C(=O)NS(=O)(=O)C3CC3)c2c1` [Cpd 199, N-(cyclopropylsulfonyl)-5-((2-methoxybenzyl)oxy)-2-methylbenzofuran-3-carboxamide] gave an IC50 of less than 1 µM.

As for `Cc1oc2ccc(OCc3ccccc3F)cc2c1C(=O)NC(C)CO` (single isomer, unassigned) [Cpd 328-En 2], the IC50 is less than 1 µM.

For the compound `Cc1oc2ccc(OC(C)(C)c3ccccc3)cc2c1C(=O)NC1(CO)CCOCC1` [Cpd 316, N-(4-(hydroxymethyl)tetrahydro-2H-pyran-4-yl)-2-methyl-5-((2-phenylpropan-2-yl)oxy)benzofuran-3-carboxamide], the IC50 was less than 1 µM.

As to `Cc1oc2ccc(OCc3ccccc3)cc2c1C(=O)N1CCC(C)CC1` [Cpd 067, (5-(benzyloxy)-2-methylbenzofuran-3-yl)(4-methylpiperidin-1-yl)methanone], the IC50 was in the range of 1 to 20 µM.

In the case of `Cc1ccccc1COc1ccc2oc(C)c(C(=O)O)c2c1` [Cpd 003, 2-methyl-5-((2-methylbenzyl)oxy)benzofuran-3-carboxylic acid], the half-inhibitory concentration (IC50) was less than 1 µM.

In the case of `Cc1oc2ccc(OCc3ccccc3F)cc2c1C(=O)NC1(C(N)=O)COC1` [Cpd 309, N-(3-carbamoyloxetan-3-yl)-5-((2-fluorobenzyl)oxy)-2-methylbenzofuran-3-carboxamide], the IC50 was less than 1 µM.

Take `Cc1oc2c(C#N)cc(OCc3ccccc3)cc2c1C(=O)NC1CNCC1(F)F` (single isomer, unassigned) [Cpd 305-En 2, 5-(benzyloxy)-7-cyano-N-(4,4-difluoropyrrolidin-3-yl)-2-methylbenzofuran-3-carboxamide]: the 50% inhibitory concentration (IC50) is more than 20 µM.

Compound `Cc1oc2ccc(OCc3ccccc3)c(C)c2c1C(=O)NC1CNCC1(F)F` (single isomer, unassigned) [Cpd 299-En 2, 5-(benzyloxy)-N-(4,4-difluoropyrrolidin-3-yl)-2,4-dimethylbenzofuran-3-carboxamide] gave an IC50 of less than 1 µM.

Consider `Cc1oc2ccc(OCc3ccccc3)cc2c1C(=O)NCC(c1ccccc1)N(C)C` (centres unmarked) [Cpd 216, 5-(benzyloxy)-N-(2-(dimethylamino)-2-phenylethyl)-2-methylbenzofuran-3-carboxamide], for which the IC50 is 1 to 20 µM.

With `Cc1oc2ccc(OCc3ccccc3)cc2c1C(=O)NC1CCNC(C)C1` (racemic) [Cpd 115, rac-5-(benzyloxy)-2-methyl-N-(cis-2-methylpiperidin-4-yl)benzofuran-3-carboxamide], the IC50 was less than 1 µM.

`Cc1oc2ccc(OCc3ccccc3)cc2c1C(=O)NC1CCOCC1` [Cpd 088, 5-(benzyloxy)-2-methyl-N-(tetrahydro-2H-pyran-4-yl)benzofuran-3-carboxamide] returned an IC50 of less than 1 µM.

Consider `Cc1oc2ccc(OCc3ccccc3)cc2c1C(=O)NC1CCOC1` (centres unmarked) [Cpd 051, 5-(benzyloxy)-2-methyl-N-(tetrahydrofuran-3-yl)benzofuran-3-carboxamide], for which the 50% inhibitory concentration (IC50) was less than 1 µM.

Compound `Cc1oc2ccc(OCc3ccccc3)cc2c1C(=O)NC1(CN)CCC1` [Cpd 082, N-(1-(aminomethyl)cyclobutyl)-5-(benzyloxy)-2-methylbenzofuran-3-carboxamide] gave an IC50 of less than 1 µM.

In the case of `Cc1oc2ccc(OCc3ccccc3)cc2c1C(=O)N[C@H]1CC[C@H](C(C)(C)O)CC1` [Cpd 210, 5-(benzyloxy)-N-(trans-4-(2-hydroxypropan-2-yl)cyclohexyl)-2-methylbenzofuran-3-carboxamide], the IC50 was 1 to 20 µM.

Turning to `Cc1oc2ccc(OCc3ccccc3CO)cc2c1C(=O)NC1CCN(C)CC1` [Cpd 192, 5-((2-(hydroxymethyl)benzyl)oxy)-2-methyl-N-(1-methylpiperidin-4-yl)benzofuran-3-carboxamide], the IC50 was 1 to 20 µM.

Consider `O=C(O)c1coc2ccc(OCc3ccccc3)cc12` [Cpd 001, 5-(benzyloxy)benzofuran-3-carboxylic acid], for which the IC50 fell in the range of 1 to 20 µM.

For `Cc1oc2ccc(OCc3ccccc3)cc2c1C(=O)NC1CCN(C)C(=O)C1` (centres unmarked) [Cpd 146, 5-(benzyloxy)-2-methyl-N-(1-methyl-2-oxopiperidin-4-yl)benzofuran-3-carboxamide], the IC50 fell in the range of 1 to 20 µM.

Take `Cc1oc2ccc(OCc3ccccc3)cc2c1C(=O)NC1CCN(c2ncccn2)CC1` [Cpd 230, 5-(benzyloxy)-2-methyl-N-(1-(pyrimidin-2-yl)piperidin-4-yl)benzofuran-3-carboxamide]: the IC50 was less than 1 µM.

`COCC(Oc1ccc2oc(C)c(C(=O)N[C@@H](CO)C(N)=O)c2c1)c1ccccc1` (single isomer, unassigned) [Cpd 346-En 2] showed an IC50 of less than 1 µM.

In turn, `COCc1oc2ccc(OCc3cccc(F)c3)cc2c1C(=O)O` [Cpd 020, 5-((3-fluorobenzyl)oxy)-2-(methoxymethyl)benzofuran-3-carboxylic acid] gave an IC50 of 1 to 20 µM.

As to `Cc1oc2ccc(OCc3ccccc3)cc2c1C(=O)N1CCCC(c2nc(C(C)C)no2)C1` (centres unmarked) [Cpd 243, (5-(benzyloxy)-2-methylbenzofuran-3-yl)(3-(3-isopropyl-1,2,4-oxadiazol-5-yl)piperidin-1-yl)-methanone], the IC50 is more than 20 µM.

`Cc1oc2ccc(OCc3ccccc3F)cc2c1C(=O)NC(C)(C)CO` [Cpd 313, 5-((2-fluorobenzyl)oxy)-N-(1-hydroxy-2-methylpropan-2-yl)-2-methylbenzofuran-3-carboxamide] returned a half-maximal inhibitory concentration (IC50) of less than 1 µM.

`Cc1oc2cc(C#N)c(OCc3ccccc3)cc2c1C(=O)NC1CNCC1(F)F` (single isomer, unassigned) [Cpd 301-En 1, 5-(benzyloxy)-6-cyano-N-(4,4-difluoropyrrolidin-3-yl)-2-methylbenzofuran-3-carboxamide]: the IC50 is more than 20 µM.

(Values after patent US20230391739A1, “ARYL DERIVATIVES FOR TREATING TRPM3 MEDIATED DISORDERS” (Katholieke Universiteit Leuven, priority 2020, published 2023).)
